Results on three compounds are retold here after ChEMBL document CHEMBL5365398, “Structure-activity relationship study of central pyridine-derived TYK2 JH2 inhibitors: Optimization of the PK profile through C4' and C6 variations” (Bioorg Med Chem Lett, 2023).

In general, amount remaining refers to the share of the starting amount still present when the sample was taken. High values mean greater stability, low ones a greater loss. The term Papp A→B denotes how fast a substance crosses the layer from the apical side. As usually defined, the half-life is how long it takes for the measured level to halve. A low value points to fast loss. Usually bioavailability stands for the share of a dose that reaches the circulation, judged against a reference dose that is usually intravenous. A low value points to little systemic uptake. For orientation: Cmax means the maximum level reached in the sampled fluid or tissue. In general, AUC(0-t) refers to exposure summed from dosing to a finite time, without extrapolation to infinity. High values mean high exposure, low ones low exposure.

A short description of data set [1]: in vitro. The settings on record: rat, liver microsomes. On the technique in general: Liver microsomes are a subcellular fraction often used to study metabolism.
A short description of data set [2]: in vitro. The following applies: mouse, liver microsomes.
A short description of data set [3]: in vitro. The following applies: human, liver microsomes.
The nature of data set [4]: in vitro. The settings on record: human, Caco-2.
Data set [5] in a line: in vitro. The settings on record: mouse, liver microsomes. The source holds these as a separate data set.
Data set [6] in a line: in vitro. The settings on record: human, liver microsomes. The source holds these as a separate data set.
Data set [7] is described as follows: in vivo. The settings on record: mouse, po, 10 mg/kg.
A short description of data set [8]: in vivo. The settings on record: mouse, po, 10 mg/kg. This is another data set of the same source.
Data set [9] can be described thus: in vitro. The following applies: rat, liver microsomes. This is another data set of the same source.
Data set [10] is described as follows: in vivo. The following applies: mouse, po, 10 mg/kg. The source holds these as a separate data set.

Regarding `[2H]C([2H])([2H])NC(=O)c1nnc(Nc2cccc(OC)n2)cc1Nc1nccc(-c2ncn(C)n2)c1OC`, the amount remaining at 10 min, 0.5 µM in data set [1] turned out to be 71%; in [2], 65%; in data set [3], 88%.
Take `[2H]C([2H])([2H])NC(=O)c1nnc(NC(=O)C2CC2)cc1Nc1nccc(-c2ncc(F)cn2)c1OC`: the values for the amount remaining at 10 min, 0.5 µM in [1], in data set [2] and in data set [3] were 100%, 100% and 89%, respectively. Besides, the Papp A→B in data set [4] came to 34.5 ×10⁻⁶ cm/s.
As to `[2H]C([2H])([2H])NC(=O)c1nnc(Nc2ccc(C(C)(C)O)cn2)cc1Nc1nccc(-c2ncc(F)cn2)c1OC`, the fraction remaining at 10 min, 0.5 µM in data set [1] came out at 100%; in [2], 83%; in data set [3], 100%. The half-life in [5], in [6] and in [9] was more than 2 h throughout. In data set [4], the apparent permeability from apical to basolateral (Papp A→B) came to 9.7 ×10⁻⁶ cm/s. Besides, the bioavailability in data set [7] is 94%. Further, in data set [8], the concentration peaked (Cmax) at 15.2 µM. Further, the AUC(0-t) in [10] worked out at 34.2 µM·h.
